# Measured values: patent publication US20050130894A1, “Process for the synchronization of ovulation for timed breeding without heat detection” (priority 2003, published 2005)
# Columns and labels:
# Assay type in all cases: in vivo, swine
# [1] = test system: postpartum sows; test: Single timed injection 96 hours post-weaning, single timed insemination without estrus detection (Example 3); conditions: 50 mcg in SAIB at 96 hours post-weaning
# Experimental: (§1) Approximately 170 postpartum sows were randomly divided into two equal groups comprised of controls and treated. Following weaning, the controls were detected for estrus and bred following the normal standard operating procedures for the farms on which they resided. The treated sows received a 50 mcg dose of deslorelin in SAIB at 96 hours post-weaning and were bred with a single insemination 28+/−2 hours later with no regard to estrus detection. The sows were examined for pregnancy by ultrasound at 21 days and slaughtered around 28 days post breeding. The entire reproductive tract was removed and corpora lutea and embryos were counted.
# [2] = test system: postpartum sows; test: Litter size after deslorelin treatment in postpartum sows, three farm sites (Example 4); conditions: regardless of estrus detection, Tables 3-5
# Source text: Postpartum sows were randomly distributed into three different groups comprised of Controls, Treatment 1, and Treatment 2, with the exception of Site 3, which was divided into two groups, Control and Treatment 2. Control sows were detected for estrus following weaning, and bred following the normal standard operating procedures for the farms on which they resided. Treatment 1 sows were detected for estrus following weaning, and received a 50 mcg dose of deslorelin in the morning when standing and were bred by AI 4 hours later and again at 24+/−2 hours later. Treatment 2 sows received a 50 mcg dose of deslorelin in SAIB at 96 or 120 hours post-weaning and were bred with a single insemination 28+/−2 hours later with no regard to estrus detection.
# [3] = test system: postpartum sows; test: Pregnancy rate after deslorelin treatment in sows, summary of data of Tables 2-5; conditions: Table 6
# Experimental: as §1, with “counted. Postpartum sows were randomly distributed into three different groups comprised of Controls, Treatment 1, and Treatment 2, with the exception of Site 3, which was divided into two groups, Control and Treatment 2. Control sows were detected for estrus following weaning, and bred following the normal standard operating procedures for the farms on which they resided. Treatment 1 sows were detected for estrus following weaning, and received a 50 mcg dose of deslorelin in the morning when standing and were bred by AI 4 hours later and again at 24+/−2 hours later. Treatment 2 sows received a 50 mcg dose of deslorelin in SAIB at 96 or 120 hours post-weaning and were bred with a single insemination 28+/−2 hours later with no regard to estrus detection. […]” for “counted.”
# [4] = test system: mature postpartum sows; test: Intravulvar injection at estrus detection in mature postpartum sows, AI breeding (Example 2)
# Experimental: Sows were assigned randomly in blocks of two to either control or to be injected intravulvar with 50 mcg of deslorelin in SAIB at the time of estrus detection for sows first detected in estrus in the a.m. and 12 hours later for those first detected in estrus in the p.m. Treated animals were bred AI upon detected estrus and again 24 hours later if still in estrus. Controls received a saline injection on first detected estrus behavior estrus detection and were bred according to the farm's normal procedures.
smiles,measurement,setting,value
"CCNC(=O)[C@@H]1CCCN1C(=O)[C@H](CCCN=C(N)N)NC(=O)[C@H](CC(C)C)NC(=O)[C@@H](Cc1c[nH]c2ccccc12)NC(=O)[C@H](Cc1ccc(O)cc1)NC(=O)[C@H](CO)NC(=O)[C@H](Cc1c[nH]c2ccccc12)NC(=O)[C@H](Cc1cnc[nH]1)NC(=O)[C@@H]1CCC(=O)N1 [Deslorelin, deslorelin]",Embryo Survival,[1],64%
same,Sows Pregnant,"[1]; single insemination 28+/-2 hours later, 84 in group",60
same,Pregnancy Rate,"[1]; single timed insemination, no estrus detection",71%
same,Litter sizes (in words),[2],normal litter sizes
same,Pregnancy rates (in words),[3],normal pregnancy rates were obtained
same,Pregnancy Rate,"[4]; 50 μg deslorelin acetate (1 ml) intravulvar at first estrus detection, AI, AI again if in estrus next day, n = 75",91%
same,Length of Estrus,"[4]; 50 μg deslorelin acetate (1 ml) intravulvar at first estrus detection, n = 69",40.81 h
same,"Live piglet number, Deslorelin versus Saline sows (difference)","[4]; 50 μg intravulvar at first estrus detection, live piglets born per litter, greater than control",Live piglet number 0.6> in Deslorelin versus Saline sows.
